We go through 1 compound from PMC8294009, “Genetically-encoded discovery of proteolytically stable bicyclic inhibitors for morphogen NODAL” (Chemical Science, 2021).

*1 amine or outer side, *2 acyl side, *3 side chain or, on linkers, in order; H or OH if unused. Where a SMILES comes first, the peptide text is derived from it. Bridges are numbered along the chain shown (N, C = ends). X1 = O=C(C=NOCCCCCCOc1cc(C[*:2])cc(C[*:3])c1)[*:1]

What is called amount remaining is the share of the starting amount still present when the sample was taken. Low values mean a greater loss, high ones greater stability.

The nature of the data set: in vitro. The conditions noted are these: Streptomyces griseus, isolated enzyme pronase, pH 7.4.

Method: Protocol for measurement of proteolytic stability in PronaseTM :
In a 600 L Eppendorf tube, we combined 196 L PBS (pH 7.4), 2 L of corresponding peptide
solution (from 10 mM stock) and 2 L of 0.1 mg/mL PronaseTM. The mixture was vortexed and
incubated at 37 °C. At indicated time points, 10 L of the solution was sampled, quenched with
190 L of 50% aq. CH3CN and maintained at 4 °C until analysis by LCMS.

For `CC(C)C[C@@H]1NC(=O)[C@H](Cc2ccc(O)cc2)NC(=O)[C@@H]2CSCc3cc(cc(c3)OCCCCCCON=CC(=O)N[C@@H](Cc3c[nH]c4ccccc34)C(=O)N[C@@H](CC(=O)O)C(=O)N[C@@H](Cc3ccc(O)cc3)C(=O)N[C@@H](CCCNC(=N)N)C(=O)N[C@@H](CCC(=O)O)C(=O)N2)CSC[C@@H](C(N)=O)NC(=O)[C@H](CCC(=O)O)NC1=O` [TSL-6-SWDYRECYLEC] (WDYRECYLEC-NH2; linker N-6-10 via X1), the share remaining at 5 h, 100 µM worked out at 68 ± 14%.
